Consider 5 molecules from ChEMBL document CHEMBL1131258, “Synthesis and glutathione S-transferase structure-affinity relationships of nonpeptide and peptidase-stable glutathione analogues” (J Med Chem, 1998).

The test system of the assay is glutathione S-transferase (Schistosoma japonicum). Briefly: Affinity towards recombinant Glutathione S-transferase (GST) Enzyme; NA indicates No affinity.

As for `O=C(O)CC/C=C/C(CS)CCCCC(=O)O` (stereo not given), the IC50 result is “Not Active”. `O=C(O)CC/C=C/C(CO)CCCCC(=O)O` (stereo not given): the IC50 entry is given as “Not Active”. Regarding `O=C(O)CCCCCC(CS)CCCCC(=O)O` (stereo not given), the IC50 entry is listed as “Not Active”.

Turning to `O=C(O)CCCCC(CS)CCCCC(=O)O`, the IC50 entry is recorded as “Not Active”. The result for `O=C(O)CCCCCCC(CS)CCCC(=O)O` (stereo not given) reads “Not Active”.
